Experimental data taken from patent publication US20080200439A1, “Methods and compositions for modulating BK channel activity and vasodilation” (University of Tennessee Research Foundation, priority 2006, published 2008).

Biological target: T1, homomeric cbv1 (rslo1) channels (Rattus norvegicus, UniProt Q62976)
T1 construct: Full-length cDNA coding for cbv1-subunits was cloned from rat cerebral artery myocytes by PCR; expressed in transfected cells; host or cells: Xenopus laevis oocytes (cRNA injection)
Experiment: Inside-out patch-clamp of homomeric cbv1 channels expressed in Xenopus oocytes
Format: cell-based
Conditions: I/O patches, Ca2+i 10 μM, ±20 mV, read-out: Average NPo (% of control)
Excerpt: cRNA Preparation and Injection into Xenopus Oocytes. Full-length cDNA coding for cbv1-subunits was cloned from rat cerebral artery myocytes by PCR and ligated to the PCR-XL-TOPO cloning vector (Invitrogen Corp., Carlsbad, Calif., United States of America) (Jaggar et al., 2005). cDNA coding for cbv1-subunits was cleaved from the cloning vector by BamHI (Invitrogen Corp., Carlsbad, Calif., United States of America) and XhoI (Promega, Madison, Wis., United States of America) and directly inserted into the pOX vector for expression in Xenopus oocytes. pOX-cbv1 was linearized with NotI (Promega, Madison, Wis., United States of America) and transcribed in vitro using T3 polymerase. […]
Electrophysiology. […] Single-channel and macroscopic currents were recorded from inside-out (I/O) or outside-out (O/O) patches. […] Nominal free Ca^2+ was calculated with MaxChelator Sliders (C. Patton, Stanford University, California, United States of America) and validated experimentally using Ca^2+-selective electrodes (Corning Incorporated Science Products Division, Corning, N.Y., United States of America). […]
Currents were recorded using an EPC8 amplifier (HEKA Electronics, Lambrecht/Pfalz, Germany) at 1 kHz using a low-pass, eight-pole Bessel filter 902LPF (Frequency Devices, Haverhill, Mass., United States of America). […]

T1 sequence (Q62976 1-1148 isoform Q62976-2): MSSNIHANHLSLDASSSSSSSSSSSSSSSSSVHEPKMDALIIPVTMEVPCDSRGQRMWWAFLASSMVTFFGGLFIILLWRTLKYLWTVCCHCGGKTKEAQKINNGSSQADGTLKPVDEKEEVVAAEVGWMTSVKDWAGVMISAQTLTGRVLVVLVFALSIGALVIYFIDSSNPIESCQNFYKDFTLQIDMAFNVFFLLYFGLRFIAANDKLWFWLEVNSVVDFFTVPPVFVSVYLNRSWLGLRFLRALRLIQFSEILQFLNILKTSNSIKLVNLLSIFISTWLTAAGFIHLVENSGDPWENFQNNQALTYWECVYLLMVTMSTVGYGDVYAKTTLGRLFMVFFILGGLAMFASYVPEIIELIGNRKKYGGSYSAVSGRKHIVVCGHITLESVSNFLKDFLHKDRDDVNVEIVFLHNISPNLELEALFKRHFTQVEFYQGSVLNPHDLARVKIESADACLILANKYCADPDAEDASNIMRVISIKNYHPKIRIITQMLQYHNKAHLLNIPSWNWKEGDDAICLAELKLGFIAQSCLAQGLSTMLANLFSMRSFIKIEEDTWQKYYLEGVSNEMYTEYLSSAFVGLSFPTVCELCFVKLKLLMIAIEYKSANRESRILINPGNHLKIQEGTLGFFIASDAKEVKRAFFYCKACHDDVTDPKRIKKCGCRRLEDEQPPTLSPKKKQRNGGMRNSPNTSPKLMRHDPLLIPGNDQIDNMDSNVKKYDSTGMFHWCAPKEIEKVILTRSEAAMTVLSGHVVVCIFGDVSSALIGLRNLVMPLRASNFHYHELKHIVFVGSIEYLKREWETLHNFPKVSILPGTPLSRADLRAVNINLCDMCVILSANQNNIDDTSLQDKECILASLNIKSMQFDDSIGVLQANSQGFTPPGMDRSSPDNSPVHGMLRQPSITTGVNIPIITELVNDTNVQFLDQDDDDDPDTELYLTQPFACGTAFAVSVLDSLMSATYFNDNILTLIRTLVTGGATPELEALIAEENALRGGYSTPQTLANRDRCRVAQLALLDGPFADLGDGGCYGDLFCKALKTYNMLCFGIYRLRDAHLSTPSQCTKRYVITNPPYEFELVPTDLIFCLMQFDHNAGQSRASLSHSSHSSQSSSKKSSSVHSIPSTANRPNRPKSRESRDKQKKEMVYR

## C[C@H](CCC(=O)O)[C@H]1CC[C@H]2[C@@H]3CC[C@@H]4C[C@H](O)CC[C@]4(C)[C@H]3CC[C@]12C [LC, 5β-cholanic acid 3α-ol]
  remaining activity at 150 µM: 112 ± 13%
